≈ marks a conversion by molar mass, not a printed value.
Tests used:
Plasmodium falciparum [1] = experiment: Antimalarial activity against Plasmodium falciparum 3D7 by [3H]hypoxanthine incorporation assay in presence of human serum; assay type: functional, organism-based
Mus musculus [2] = experiment: AUC (0 to 10 hrs) in human RBC engrafted NOD-SCID IL-2Rgamma-null mouse at 5.7 mg/kg, po; assay type: ADME, organism-based, Plasma; set-up: time < 10 hr, dose 5.7 mg/kg, route oral; settings: in vivo
Mus musculus [3] = experiment: Time plasma concentration remained above 1 uM in Swiss outbred mouse plasma at 10 mg/kg, po; assay type: ADME, organism-based; set-up: dose 10 mg/kg, route oral; settings: in vivo
[4] = Terminal elimination half life in Swiss outbred mouse at 2 mg/kg, po; assay type: ADME, organism-based; set-up: dose 2 mg/kg, route oral; settings: in vivo, read-out: beta t1/2 (converted)
[5] = Oral bioavailability in Sprague-Dawley rat at 2 mg/kg; assay type: ADME, organism-based; settings: in vivo
[6] = AUC (0 to infinity) in Swiss outbred mouse plasma at 0.4 mg/kg, po; assay type: ADME, organism-based; set-up: time infinity, dose 0.4 mg/kg, route oral
[7] = Terminal elimination half life in Sprague-Dawley rat at 1 mg/kg, iv; assay type: ADME, organism-based; set-up: dose 1 mg/kg, route intravenous; settings: in vivo, read-out: beta t1/2 (converted)
[8] = Terminal elimination half life in Sprague-Dawley rat at 2 mg/kg, po; assay type: ADME, organism-based; set-up: dose 2 mg/kg, route oral; settings: in vivo, read-out: beta t1/2 (converted)
Plasmodium falciparum [9] = experiment: Antimalarial activity against […] Plasmodium falciparum TM90C2A by [3H]hypoxanthine incorporation assay in presence of human serum; assay type: functional, organism-based
L1210 = experiment: Cytotoxicity against mouse L1210 cells; assay type: cell-based
[10] = Lipophilicity, log D of the compound at pH 7.4; assay type: physicochemical; settings: buffer
Plasmodium falciparum [11] = experiment: Antimalarial activity against chloroquine and pyrimethamine-resistant Plasmodium falciparum K1 by [3H]hypoxanthine incorporation assay in presence of human serum; assay type: functional, organism-based
[12] = AUC (0 to infinity) in Sprague-Dawley rat at 2 mg/kg, po; assay type: ADME, organism-based; set-up: time infinity, dose 2 mg/kg, route oral; settings: plasma
[13] = Cmax in human RBC engrafted NOD-SCID IL-2Rgamma-null mouse infected with Plasmodium falciparum 3D7 0087/N9 at 5.7 mg/kg, po; assay type: ADME, organism-based; set-up: dose 5.7 mg/kg, route oral; settings: in vivo
[14] = Aqueous solubility of the compound at pH 6.5; assay type: physicochemical
Mus musculus [15] = experiment: AUC (0 to 10 hrs) in human RBC engrafted NOD-SCID IL-2Rgamma-null mouse infected with Plasmodium falciparum 3D7 0087/N9 at 5.7 mg/kg, po; assay type: ADME, organism-based, Plasma; set-up: time < 10 hr, dose 5.7 mg/kg, route oral; settings: in vivo
[16] = Cmax in human RBC engrafted NOD-SCID IL-2Rgamma-null mouse at 5.7 mg/kg, po; assay type: ADME, organism-based; set-up: dose 5.7 mg/kg, route oral; settings: in vivo
Plasmodium falciparum [17] = experiment: Antimalarial activity against atovoquone-resistant Plasmodium falciparum TM90C2B by [3H]hypoxanthine incorporation assay in presence of human serum; assay type: functional, organism-based
[18] = Inhibition of Plasmodium berghei C-terminal hexa-His tagged DHODH expressed in Escherichia coli by DCIP reduction assay
Mus musculus [19] = experiment: Time plasma concentration remained above 1 uM in Swiss outbred mouse plasma at 2 mg/kg, po; assay type: ADME, organism-based; set-up: dose 2 mg/kg, route oral; settings: in vivo
[20] = Volume of distribution in Sprague-Dawley rat at 4.5 mg/kg, iv; assay type: ADME, organism-based; set-up: dose 4.5 mg/kg, route intravenous; settings: in vivo
[21] = Cmax in Swiss outbred mouse at 10 mg/kg, po; assay type: ADME, organism-based; set-up: dose 10 mg/kg, route oral; settings: in vivo
[22] = Plasma protein binding in Sprague-Dawley rat at 2 to 21.2 mg/kg, po; assay type: ADME, organism-based; set-up: dose 2-21.2 mg/kg, route oral; settings: read-out: PPB (converted)
Plasmodium falciparum [23] = experiment: Antimalarial activity against drug-sensitive Plasmodium falciparum HB3 by [3H]hypoxanthine incorporation assay in presence of human serum; assay type: functional, organism-based
[24] = AUC (0 to infinity) in Sprague-Dawley rat at 21.2 mg/kg, po; assay type: ADME, organism-based; set-up: time infinity, dose 21.2 mg/kg, route oral; settings: plasma
[25] = Terminal elimination half life in Swiss outbred mouse at 10 mg/kg, po; assay type: ADME, organism-based; set-up: dose 10 mg/kg, route oral; settings: in vivo, read-out: beta t1/2 (converted)
[26] = AUC (0 to infinity) in Swiss outbred mouse plasma at 2 mg/kg, po; assay type: ADME, organism-based; set-up: time infinity, dose 2 mg/kg, route oral
Liver microsomes = experiment: Intrinsic clearance in human liver microsomes; assay type: ADME, Microsome
Plasma [27] = experiment: Plasma protein binding in human by chromatographic method; assay type: ADME, cell-free
in vivo [28] = settings: Sprague-Dawley, rat, po, 2 mg/kg
[29] = Cmax in Sprague-Dawley rat at 21.2 mg/kg, po; assay type: ADME, organism-based; set-up: dose 21.2 mg/kg, route oral; settings: in vivo
HepG2 = experiment: Cytotoxicity against human HepG2 cells; assay type: cell-based
Liver = experiment: Intrinsic clearance in mouse liver microsomes; assay type: ADME, Microsome
in vivo [30] = settings: Sprague-Dawley, rat, po, 21.2 mg/kg
in vivo [31] = settings: Swiss outbred, mouse, po, 50 mg/kg
[32] = Cmax in Swiss outbred mouse at 2 mg/kg, po; assay type: ADME, organism-based; set-up: dose 2 mg/kg, route oral; settings: in vivo
[33] = Terminal elimination half life in Sprague-Dawley rat at 4.5 mg/kg, iv; assay type: ADME, organism-based; set-up: dose 4.5 mg/kg, route intravenous; settings: in vivo, read-out: beta t1/2 (converted)
in vivo [34] = settings: NOD-SCID IL-2Rgamma-null, mouse, po, 5.7 mg/kg
in vivo [35] = settings: Swiss outbred, mouse, po, 10 mg/kg
Plasmodium falciparum [36] = experiment: Antimalarial activity against drug-sensitive Plasmodium falciparum D6 by [3H]hypoxanthine incorporation assay in presence of human serum; assay type: functional, organism-based
[37] = Oral bioavailability in Sprague-Dawley rat at 21.2 mg/kg; assay type: ADME, organism-based; settings: in vivo
[38] = Clearance in Sprague-Dawley rat at 1 mg/kg, iv; assay type: ADME, organism-based; set-up: dose 1 mg/kg, route intravenous; settings: in vivo
Mus musculus [39] = experiment: Time plasma concentration remained above 1 uM in Swiss outbred mouse plasma at 50 mg/kg, po; assay type: ADME, organism-based; set-up: dose 50 mg/kg, route oral; settings: in vivo
[40] = AUC (0 to infinity) in Swiss outbred mouse plasma at 10 mg/kg, po; assay type: ADME, organism-based; set-up: time infinity, dose 10 mg/kg, route oral
Plasmodium falciparum [41] = experiment: Antimalarial activity against Plasmodium falciparum 3D7 0087/N9 infected in human RBC engrafted NOD-SCID IL-2Rgamma-null mouse assessed as reduction in parasitemia administered orally 3 days post infection qd for 4 days measured 24 hrs after final dose by FACS analysis; assay type: functional; settings: 3D7 0087/N9, po
[42] = biological target: Dihydroorotate dehydrogenase (quinone), mitochondrial (Homo sapiens, UniProt Q02127)
Sequence of Dihydroorotate dehydrogenase (quinone), mitochondrial (Q02127 whole entry): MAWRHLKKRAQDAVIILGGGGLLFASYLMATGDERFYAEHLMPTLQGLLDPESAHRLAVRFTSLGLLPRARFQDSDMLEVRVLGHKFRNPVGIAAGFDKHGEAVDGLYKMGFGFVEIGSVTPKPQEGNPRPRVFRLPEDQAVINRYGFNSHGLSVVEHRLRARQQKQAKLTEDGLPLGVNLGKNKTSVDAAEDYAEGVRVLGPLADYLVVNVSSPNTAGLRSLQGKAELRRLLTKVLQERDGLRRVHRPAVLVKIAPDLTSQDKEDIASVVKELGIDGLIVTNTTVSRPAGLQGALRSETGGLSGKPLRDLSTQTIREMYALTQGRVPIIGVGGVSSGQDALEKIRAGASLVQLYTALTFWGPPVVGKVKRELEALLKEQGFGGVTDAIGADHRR
Description: Inhibition of human C-terminal hexa-His tagged DHODH expressed in Escherichia coli by DCIP reduction assay

in vivo [43] = settings: Swiss outbred, mouse, po, 0.4 mg/kg
[44] = Clearance in Sprague-Dawley rat at 4.5 mg/kg, iv; assay type: ADME, organism-based; set-up: dose 4.5 mg/kg, route intravenous; settings: in vivo
Plasma [45] = experiment: Plasma protein binding in human by ultracentrifugation method; assay type: ADME, cell-free
[46] = Cmax in Sprague-Dawley rat at 2 mg/kg, po; assay type: ADME, organism-based; set-up: dose 2 mg/kg, route oral; settings: in vivo
[47] = Plasma protein binding in Swiss outbred mouse by ultracentrifugation; settings: read-out: PPB (converted)
[48] = Terminal elimination half life in Swiss outbred mouse at 0.4 mg/kg, po; assay type: ADME, organism-based; set-up: dose 0.4 mg/kg, route oral; settings: in vivo, read-out: beta t1/2 (converted)
Plasmodium falciparum [49] = experiment: Antimalarial activity against Plasmodium falciparum 3D7 by [3H]hypoxanthine incorporation assay in presence of albumax; assay type: functional, organism-based
[50] = Cmax in Swiss outbred mouse at 50 mg/kg, po; assay type: ADME, organism-based; set-up: dose 50 mg/kg, route oral; settings: in vivo
Mus musculus [51] = experiment: Time plasma concentration remained above 1 uM in Swiss outbred mouse plasma at 0.4 mg/kg, po; assay type: ADME, organism-based; set-up: dose 0.4 mg/kg, route oral; settings: in vivo
in vivo [52] = settings: Swiss outbred, mouse, po, 2 mg/kg
[53] = Terminal elimination half life in Sprague-Dawley rat at 21.2 mg/kg, po; assay type: ADME, organism-based; set-up: dose 21.2 mg/kg, route oral; settings: in vivo, read-out: beta t1/2 (converted)

## Cc1cc(Nc2ccc(C(F)(F)F)cc2)n2nc(C(C)(F)F)nc2n1
Plasmodium falciparum [1]
  EC50: 0.01 µM
Mus musculus [2]
  AUC: 2521 µM·min
Mus musculus [3]
  Time: 14 h
[4]
  half-life: 1.9 h
[5]
  bioavailability: 97%
[6]
  AUC(0-inf): 0.667 µM·h
[7]
  half-life: 6.1 h
[8]
  half-life: 6 h
Plasmodium falciparum [9]
  EC50: 0.0079 µM
L1210
  EC50: > 50 µM
[10]
  logD: 3.3
Plasmodium falciparum [11]
  EC50: 0.016 µM
[12]
  AUC(0-inf): 3.88 µM·h
[13]
  Cmax: 6.3 µM
[14]
  solubility: 70 µM (≈ 25 µg/mL)
Mus musculus [15]
  AUC: 2740 µM·min
[16]
  Cmax: 6.3 µM
Plasmodium falciparum [17]
  EC50: 0.0046 µM
[18]
  IC50: 2.4 µM
Mus musculus [19]
  Time: 6 h
[20]
  Vd: 2.9 L/kg
[21]
  Cmax: 9.86 µM
[22]
  fraction unbound: 0.058
Plasmodium falciparum [23]
  EC50: 0.0079 µM
[24]
  AUC(0-inf): 342 µM·h
[25]
  half-life: 1.6 h
[26]
  AUC(0-inf): 9.48 µM·h
Liver microsomes
  Intrinsic clearance: < 5 µL/min/mg
Plasma [27]
  PPB: 90.4%
In vivo [28]
  Tmax: 1 h
[29]
  Cmax: 11.4 µM
HepG2
  EC50: > 50 µM
Liver
  Intrinsic clearance: 10.1 µL/min/mg
In vivo [30]
  Tmax: 3.25 h
In vivo [31]
  Tmax: 2 h
[32]
  Cmax: 1.85 µM
[33]
  half-life: 3.8 h
In vivo [34]
  Tmax: 1.7 h
In vivo [35]
  Tmax: 4 h
Plasmodium falciparum [36]
  EC50: 0.012 µM
[37]
  bioavailability: > 100%
[38]
  clearance: 1.39 L/h/kg
Mus musculus [39]
  Time: 14 h
[40]
  AUC(0-inf): 70.1 µM·h
Plasmodium falciparum [41]
  ED50: 9.6 mg/kg
  ED90: 26 mg/kg
[42]
  IC50: > 100 µM
In vivo [43]
  Tmax: 0.5 h
[44]
  clearance: 0.756 L/h/kg
Plasma [45]
  PPB: 98.8%
[46]
  Cmax: 0.9 µM
[47]
  fraction unbound: 0.026
[48]
  half-life: 2.1 h
Plasmodium falciparum [49]
  EC50: 0.0062 µM
[50]
  Cmax: 57 µM
Mus musculus [51]
  Time: 0 h
In vivo [52]
  Tmax: 1 h
[53]
  half-life: 17 h

Reference: ChEMBL document CHEMBL1955725, “Structure-guided lead optimization of triazolopyrimidine-ring substituents identifies potent Plasmodium falciparum dihydroorotate dehydrogenase inhibitors with clinical candidate potential” (J Med Chem, 2011)
